Test results: patent US11680060B2, “Bicycloheptane pyrrolidine orexin receptor agonists” (Merck Sharp & Dohme LLC, priority 2020, dated 2023)

Target: human OX2R (Homo sapiens (Human), UniProt O43614)
Experiment: IPOne (IP-1) assay in CHO cells expressing human OX2R
Assay type: cell-based
Details: for Emax: CHO, percentage of mean max effect of a reference compound at 1 uM (100% activity by comparison to Orexin A), human OX2R, read-out: Emax (%); for IC50: CHO cells expressing human OX2R, IP-One detection, 2 hours incubation, EC50 = inflection point of four parameter logistic fit, read-out: hOX2R_IP_IC50
Excerpt: The utility of the compounds in accordance with the present invention as orexin receptor OX1R and/or OX2R agonists may be readily determined without undue experimentation by methodology well known in the art. Both the OX1R and/or OX2R G-coupled protein receptors (GPCRs) couple through the Gαq signaling pathway, which ultimately promotes calcium mobilization via inositol triphosphate (IP3) production. The half-life of IP-3 is relatively short, being rapidly metabolized to inositol monophosphate (IP-1), which can be readily detected using a commercially available assay kit (IP-One; Cisbio; cat #621PAPEC) coupled with a cell line expressing the target receptor(s) of interest. The utility of the compounds in accordance with the present invention as orexin receptor OX1R and/or OX2R agonists may be determined utilizing this assay.
In a typical experiment, the OX1 and OX2 receptor agonist activity is determined in accordance with the following general experimental method. Chinese hamster ovary (CHO) cells expressing human OX1R and/or the human OX2R were grown in Iscove's modified DMEM containing glutaMAX™, 1% G418, 100 U/mL penicillin, 100 μg/mL streptomycin and 10% heat-inactivated qualified fetal bovine serum (FBS). The OX2R cells were seeded at 10,000 cells/well/50 μL and the OX1R cells were seeded at 20,000 cells/well/50 μL into 384-well white tissue culture plates (Greiner; cat #781080). All cell/media reagents were from GIBCO-Invitrogen Corp. The seeded cell plate(s) were incubated at 37° C. with 5% CO2 and 85% humidity for 20-24 hours. On the day of the assay, assay-ready compound plates were prepared using an acoustic liquid handler (ECHO; Labcyte), which dispensed sufficient volume of test compound stock (10 mM in DMSO) or 100% DMSO to prepare 10 point, ½-log dilutions in a final volume of 202.5 nL/well in all test wells of a 384-well diamond plate (Labcyte). Following completion of assay-ready plates, importantly, the next three steps were performed with minimal delay: 1) 20 μl of 1× stimulation buffer was added to the compound plate using a Multidrop Combi (small cassette, Thermo Fisher Scientific cat #24073290); 2) culture medium was removed from the cell plate using the Bluewasher plate washer (gentle spin; BlueCatBio); 3) 14 μl of compound/stimulation buffer mixture was added to the cell plate using a Bravo liquid handler (Agilent) prior to incubating cell plates at 37° C. with 5% CO2 and 85% humidity for 1 or 2 hours (OX1R and OX2R, respectively). During this incubation, IP-one detection reagents were prepared (38:1:1 lysis buffer:D2:AB-cryptate reagents). Six μL of mixed detection reagents were added to the cell plate using a Multidrop Combi (small cassette, Thermo Fisher Scientific cat #24073290) and incubated 60 minutes at room temperature in the dark. Fluorescence signal was detected using an Envision plate reader (Perkin Elmer) [LANCE/DELFIA Dual Enh (Em: APC 665; Ex: Cy5 620)].
For each compound, data were fit to a four parameter logistic fit (ActivityBase software) and the EC50 was reported as the inflection point of the resulting curve. Percent effect for each test compound was determined as the percentage of sample raw value/mean max effect, where the mean max effect was derived from the mean raw value of 32 control wells per assay plate (using Orexin A (cat #003-30) at 1 μM for human OX1R and a reference compound at 1 uM with 100% activity previously established by comparison to Orexin A for human OX2R). The intrinsic orexin receptor agonist activity of a compound which may be used in the present invention may be determined by these assays.

Sequence of human OX2R (O43614 whole entry): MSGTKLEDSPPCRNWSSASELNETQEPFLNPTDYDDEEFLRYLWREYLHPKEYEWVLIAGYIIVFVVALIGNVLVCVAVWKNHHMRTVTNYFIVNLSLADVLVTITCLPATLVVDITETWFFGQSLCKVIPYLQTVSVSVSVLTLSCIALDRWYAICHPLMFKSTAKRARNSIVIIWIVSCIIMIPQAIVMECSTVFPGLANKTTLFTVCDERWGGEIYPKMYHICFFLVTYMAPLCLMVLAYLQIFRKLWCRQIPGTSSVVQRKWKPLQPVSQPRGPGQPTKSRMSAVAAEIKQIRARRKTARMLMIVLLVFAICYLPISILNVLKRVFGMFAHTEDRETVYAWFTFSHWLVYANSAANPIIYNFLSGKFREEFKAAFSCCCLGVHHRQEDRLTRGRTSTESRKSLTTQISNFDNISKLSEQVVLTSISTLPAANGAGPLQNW

Row | Emax [%] | IC50 [nM] | Structure (SMILES)
1 | 101 | – | COC(=O)N1[C@H](C)C[C@H](NS(=O)(=O)C(F)F)[C@@H]1CO[C@@H]1CC[C@]2(c3ncccn3)C[C@@H]2C1 [Example 69, methyl (2R,3S,5R)-3-((difluoromethyl)sulfonamido)-5-methyl-2-((((1R,3R,6S)-6-(pyrimidin-2-yl)bicyclo[4.1.0]heptan-3-yl)oxy)methyl)pyrrolidine-1-carboxylate]
2 | 99.7 | – | COC(=O)N1[C@@H]2COC[C@@H]2C(NS(C)(=O)=O)[C@@H]1COC1CCC2(c3ncc(F)cn3)CC2C1 (mixture of isomers) [Example 134, Methyl (2R,3aS,6aS)-2-(((6-(5-fluoropyrimidin-2-yl)bicyclo[4.1.0]heptan-3-yl)oxy)methyl)-3-(methylsulfonamido)hexahydro-1H-furo[3,4-b]pyrrole-1-carboxylate]
3 | 103 | 1.1 | COC(=O)N1[C@H](C(F)F)C[C@H](NS(=O)(=O)CF)[C@@H]1CO[C@H]1CC[C@@]2(c3ncc(Cl)cn3)C[C@H]2C1 (single isomer, unassigned) [Example 115]
4 | 99.8 | 238 | COC(=O)N1CC[C@H](NS(C)(=O)=O)[C@@H]1CO[C@H]1CC[C@@]2(c3ncccn3)C[C@H]2C1 (single isomer, unassigned) [Example 177]
5 | 102 | 1.6 | CC(C)OC(=O)N1[C@H](C)C[C@H](NS(=O)(=O)N(C)C)[C@@H]1CO[C@@H]1CC[C@]2(c3ncc(F)cn3)C[C@@H]2C1 (single isomer, unassigned) [Example 160]
6 | 104 | – | CCC(F)(F)COC(=O)N1[C@H](C)C[C@H](NS(C)(=O)=O)[C@@H]1CO[C@H]1CC[C@@]2(c3ncc(F)cn3)C[C@H]2C1 [Example 60, 2,2-difluorobutyl (2R,3S,5R)-2-((((1S,3S,6R)-6-(5-fluoropyrimidin-2-yl)bicyclo[4.1.0]heptan-3-yl)oxy)methyl)-5-methyl-3-(methylsulfonamido)pyrrolidine-1-carboxylate]
7 | 84 | – | COC(=O)N1[C@H](C)C[C@H](NS(C)(=O)=O)[C@@H]1COC1CCC2(c3ncc(F)c(C4CC4)n3)CC2C1 (stereo partly drawn) [Example 74, methyl (2R,3S,5R)-2-(((6-(4-cyclopropyl-5-fluoropyrimidin-2-yl)bicyclo[4.1.0]heptan-3-yl)oxy)methyl)-5-methyl-3-(methylsulfonamido)pyrrolidine-1-carboxylate]
8 | 102 | – | COC(=O)N1[C@H](C(F)F)C[C@H](NS(=O)(=O)C(C)C)[C@@H]1COC1CCC2(c3ncc(F)cn3)CC2C1 (stereo partly drawn) [Example 120, methyl (2R,3S,5S)-5-(difluoromethyl)-2-(((6-(5-fluoropyrimidin-2-yl)bicyclo[4.1.0]heptan-3-yl)oxy)methyl)-3-((1-methylethyl)sulfonamido)pyrrolidine-1-carboxylate]
9 | 89.5 | – | COC(=O)N1[C@H](C)C[C@H](NS(C)(=O)=O)[C@@H]1COC1CCC2(c3ncc(OC(F)F)c(C)n3)CC2C1 (stereo partly drawn) [Example 75, methyl (2R,3S,5R)-2-(((6-(5-(difluoromethoxy)-4-methylpyrimidin-2-yl)bicyclo[4.1.0]heptan-3-yl)oxy)methyl)-5-methyl-3-(methylsulfonamido)pyrrolidine-1-carboxylate]
10 | 101 | 4.4 | CC(C)OC(=O)N1[C@H](C)C[C@H](NS(C)(=O)=O)[C@@H]1CO[C@H]1CC[C@@]2(c3ncc(Cl)cn3)C[C@H]2C1 (single isomer, unassigned) [Example 151]
11 | 102 | 3.3 | CC(C)OC(=O)N1[C@H](C)C[C@H](NS(=O)(=O)C(F)F)[C@@H]1CO[C@@H]1CC[C@]2(c3ncc(F)cn3)C[C@@H]2C1 (single isomer, unassigned) [Example 91]

Continued, compound first:

Row | Structure (SMILES) | Emax [%] | IC50 [nM]
12 | COC(=O)N1[C@H](C)C[C@H](NS(C)(=O)=O)[C@@H]1CO[C@@H]1CC[C@]2(c3ncccn3)C[C@@H]2C1 (single isomer, unassigned) [Example 180] | 99.7 | 100
13 | C[C@@H]1C[C@H](NS(C)(=O)=O)[C@H](CO[C@H]2CC[C@@]3(c4ncc(F)cn4)C[C@H]3C2)N1C(=O)OCC(F)C1CCC1 (stereo partly drawn) [Example 54, 2-cyclobutyl-2-fluoroethyl (2R,3S,5R)-2-((((1S,3S,6R)-6-(5-fluoropyrimidin-2-yl)bicyclo[4.1.0]heptan-3-yl)oxy)methyl)-5-methyl-3-(methylsulfonamido)pyrrolidine-1-carboxylate] | 104 | –
14 | C[C@@H]1C[C@H](NS(C)(=O)=O)[C@H](CO[C@H]2CC[C@@]3(c4ncc(F)cn4)C[C@H]3C2)N1C(=O)O[C@H]1COC[C@@H]1F [Example 56, (3S,4S)-4-fluorotetrahydrofuran-3-yl (2R,3S,5R)-2-((((1S,3S,6R)-6-(5-fluoropyrimidin-2-yl)bicyclo[4.1.0]heptan-3-yl)oxy)methyl)-5-methyl-3-(methylsulfonamido)pyrrolidine-1-carboxylate] | 104 | –
15 | CCS(=O)(=O)N[C@H]1C[C@@H](C)N(C(=O)OC)[C@H]1CO[C@H]1CC[C@@]2(c3ncc(F)cn3)C[C@H]2C1 [Example 36, methyl (2R,3S,5R)-3-(ethylsulfonamido)-2-((((1S,3S,6R)-6-(5-fluoropyrimidin-2-yl)bicyclo[4.1.0]heptan-3-yl)oxy)methyl)-5-methylpyrrolidine-1-carboxylate] | 102 | –
16 | CC(F)COC(=O)N1[C@H](C)C[C@H](NS(C)(=O)=O)[C@@H]1CO[C@H]1CC[C@@]2(c3ncc(F)cn3)C[C@H]2C1 (stereo partly drawn) [Example 58, 2-fluoropropyl (2R,3S,5R)-2-((((1S,3S,6R)-6-(5-fluoropyrimidin-2-yl)bicyclo[4.1.0]heptan-3-yl)oxy)methyl)-5-methyl-3-(methylsulfonamido)pyrrolidine-1-carboxylate] | 103 | –
17 | CC(C)OC(=O)N1[C@H](C)C[C@H](NS(=O)(=O)CF)[C@@H]1CO[C@@H]1CC[C@]2(c3ncc(Cl)cn3)C[C@@H]2C1 (single isomer, unassigned) [Example 96] | 103 | 6.5
18 | CC(C)OC(=O)N1CCC[C@H](NS(=O)(=O)C2CC2)[C@@H]1COC1CCC2(c3ncc(F)cn3)CC2C1 (stereo partly drawn) [Example 122, isopropyl (2R,3S)-3-(cyclopropanesulfonamido)-2-(((6-(5-fluoropyrimidin-2-yl)bicyclo[4.1.0]heptan-3-yl)oxy)methyl)piperidine-1-carboxylate] | 104 | –
19 | CC(C)OC(=O)N1[C@H](C)C[C@H](NS(=O)(=O)CF)[C@@H]1COC1CCC2(c3ncc(Cl)cn3)CC2C1 (stereo partly drawn) [Example 107, isopropyl (2R,3S,5R)-2-(((6-(5-chloropyrimidin-2-yl)bicyclo[4.1.0]heptan-3-yl)oxy)methyl)-3-((fluoromethyl)sulfonamido)-5-methylpyrrolidine-1-carboxylate] | 104 | –
20 | C[C@@H]1C[C@H](NS(C)(=O)=O)[C@H](CO[C@H]2CC[C@@]3(c4ncc(F)cn4)C[C@H]3C2)N1C(=O)OCC(F)(F)F [Example 65, 2,2,2-trifluoroethyl (2R,3S,5R)-2-((((1S,3S,6R)-6-(5-fluoropyrimidin-2-yl)bicyclo[4.1.0]heptan-3-yl)oxy)methyl)-5-methyl-3-(methylsulfonamido)pyrrolidine-1-carboxylate] | 102 | –
21 | CC(C)OC(=O)N1[C@H](C)C[C@H](NS(C)(=O)=O)[C@@H]1COC1CCC2(c3ncc(Cl)cn3)CC2C1 (stereo partly drawn) [Example 154, isopropyl (2R,3S,5R)-2-(((6-(5-chloropyrimidin-2-yl)bicyclo[4.1.0]heptan-3-yl)oxy)methyl)-5-methyl-3-(methylsulfonamido)pyrrolidine-1-carboxylate] | 101 | –
